Data taken from PubChem BioAssay AID330 (DTP/NCI, 2004).
“And” between values parts separate entries of the source, which are not always exact repeats. Equal values may be shown once. Inconclusive results and toxic doses are left out. The calls were made as follows: active = survival T/C of 150% or more; inactive = T/C below 125% in these data.

System: P388 leukemia ip, CD2F1 mice, survival T/C
Test: NCI In Vivo Anticancer Drug Screen. Data for tumor model P388 Leukemia (intraperitoneal) in CD2F1 (CDF1) mice
Settings: endpoint: median survival time, higher = longer survival
In short: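 Mice carrying the transplanted tumor received test compound or vehicle. Survival was recorded in each group, and the value is the treated-group measurement divided by that of the vehicle-treated control group.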

[1] = dose: 50.0 mg/kg/injection, schedule: Q01DX005 (ip), vehicle: saline with Tween-80
[2] = dose: 100.0 mg/kg/injection, schedule: Q01DX005 (ip), vehicle: saline with Tween-80
[3] = dose: 200.0 mg/kg/injection, schedule: Q01DX005 (ip), vehicle: saline with Tween-80
[4] = dose: 50.0 mg/kg/injection, schedule: Q01DX009 (ip), vehicle: saline with Tween-80
[5] = dose: 60.0 mg/kg/injection, schedule: Q01DX005 (ip), vehicle: Klucel (hydroxypropylcellulose) (HPC)
[6] = dose: 120.0 mg/kg/injection, schedule: Q01DX005 (ip), vehicle: Klucel (hydroxypropylcellulose) (HPC)
[7] = dose: 240.0 mg/kg/injection, schedule: Q01DX005 (ip), vehicle: Klucel (hydroxypropylcellulose) (HPC)
[8] = dose: 100.0 mg/kg/injection, schedule: Q01DX009 (ip), vehicle: Klucel (hydroxypropylcellulose) (HPC)
[9] = dose: 200.0 mg/kg/injection, schedule: Q01DX009 (ip), vehicle: Klucel (hydroxypropylcellulose) (HPC)

Measured: T/C

CNC(=O)OCc1c(C)sc(-c2ccccc2)c1COC(=O)NC
inactive: dose: 12.5 mg/kg/injection, schedule: Q01DX005 (ip), vehicle: distilled water + Tween-80 93 % of control | dose: 25.0 mg/kg/injection, schedule: Q01DX005 (ip), vehicle: distilled water + Tween-80 95 % of control | dose: 50.0 mg/kg/injection, schedule: Q01DX005 (ip), vehicle: distilled water + Tween-80 98 % of control | dose: 100.0 mg/kg/injection, schedule: Q01DX005 (ip), vehicle: distilled water + Tween-80 86 % of control

Cc1occ(Br)c(=O)c1O
inactive: dose: 50.0 mg/kg/injection, schedule: Q01DX005 (ip), vehicle: saline 104 % of control | dose: 100.0 mg/kg/injection, schedule: Q01DX005 (ip), vehicle: saline 103 % of control | dose: 200.0 mg/kg/injection, schedule: Q01DX005 (ip), vehicle: saline 103 % of control

N#Cc1c2ccccc2c(=O)n2ccccc12
inactive: dose: 100.0 mg/kg/injection, schedule: Q04DX002 (ip), vehicle: Klucel (hydroxypropylcellulose) (HPC) 94 % of control | dose: 200.0 mg/kg/injection, schedule: Q04DX002 (ip), vehicle: Klucel (hydroxypropylcellulose) (HPC) 88 % of control | dose: 400.0 mg/kg/injection, schedule: Q04DX002 (ip), vehicle: Klucel (hydroxypropylcellulose) (HPC) 94 % of control

Cc1nc2ccccc2[se]1
inactive: dose: 60.0 mg/kg/injection, schedule: Q01DX005 (ip), vehicle: saline with Tween-80 100 % of control | dose: 120.0 mg/kg/injection, schedule: Q01DX005 (ip), vehicle: saline with Tween-80 92 % of control | dose: 240.0 mg/kg/injection, schedule: Q01DX005 (ip), vehicle: saline with Tween-80 96 % of control

O=P1(Nc2ccc(Cl)cc2)N(Cc2ccc(Cl)cc2)CCCN1Cc1ccc(Cl)cc1
inactive: [1] 93 % of control | [2] 92 % of control | [3] 98 % of control

O=c1nc(Oc2ccccc2)nc2ncccn12
inactive: dose: 6.25 mg/kg/injection, schedule: Q01DX009 (ip), vehicle: saline with Tween-80 101 % of control | dose: 12.5 mg/kg/injection, schedule: Q01DX009 (ip), vehicle: saline with Tween-80 112 % of control | [4] 114 % of control

C[C@@H]1C[C@@H]([C@H](O)CC2CC(=O)NC(=O)C2)C(=O)[C@@H](C)C1
inactive: dose: 3.89 mg/kg/injection, schedule: Q01DX009 (ip), vehicle: Klucel (hydroxypropylcellulose) (HPC) 99 % of control and 108 % of control | dose: 6.48 mg/kg/injection, schedule: Q01DX009 (ip), vehicle: Klucel (hydroxypropylcellulose) (HPC) 102 % of control and 104 % of control | dose: 10.8 mg/kg/injection, schedule: Q01DX009 (ip), vehicle: Klucel (hydroxypropylcellulose) (HPC) 104 % of control and 117 % of control | dose: 12.5 mg/kg/injection, schedule: Q01DX009 (ip), vehicle: water 108 % of control and 115 % of control | dose: 18.0 mg/kg/injection, schedule: Q01DX009 (ip), vehicle: Klucel (hydroxypropylcellulose) (HPC) 106 % of control and 94 % of control | dose: 20.0 mg/kg/injection, schedule: Q01DX009 (ip), vehicle: water 92 % of control | dose: 23.3 mg/kg/injection, schedule: Q04DX003 (ip), vehicle: Klucel (hydroxypropylcellulose) (HPC) 102 % of control and 104 % of control | dose: 25.0 mg/kg/injection, schedule: Q01DX009 (ip), vehicle: water 117 % of control | dose: 30.0 mg/kg/injection, schedule: Q01DX009 (ip), vehicle: Klucel (hydroxypropylcellulose) (HPC) 113 % of control and 117 % of control | dose: 30.0 mg/kg/injection, schedule: Q01DX009 (ip), vehicle: water 95 % of control | dose: 38.9 mg/kg/injection, schedule: Q04DX003 (ip), vehicle: Klucel (hydroxypropylcellulose) (HPC) 111 % of control and 97 % of control | dose: 40.0 mg/kg/injection, schedule: Q01DX009 (ip), vehicle: water 100 % of control | dose: 50.0 mg/kg/injection, schedule: Q01DX009 (ip), vehicle: water 99 % of control | dose: 64.8 mg/kg/injection, schedule: Q04DX003 (ip), vehicle: Klucel (hydroxypropylcellulose) (HPC) 104 % of control and 95 % of control | dose: 80.0 mg/kg/injection, schedule: Q01DX009 (ip), vehicle: water 109 % of control | dose: 100.0 mg/kg/injection, schedule: Q01DX001 (ip), vehicle: saline 110 % of control | dose: 108.0 mg/kg/injection, schedule: Q04DX003 (ip), vehicle: Klucel (hydroxypropylcellulose) (HPC) 109 % of control | dose: 120.0 mg/kg/injection, schedule: Q01DX009 (ip), vehicle: water 92 % of control | dose: 125.0 mg/kg/injection, schedule: Q01DX001 (ip), vehicle: saline 113 % of control | dose: 150.0 mg/kg/injection, schedule: Q01DX001 (ip), vehicle: saline 112 % of control | dose: 175.0 mg/kg/injection, schedule: Q01DX001 (ip), vehicle: saline 112 % of control | dose: 180.0 mg/kg/injection, schedule: Q04DX003 (ip), vehicle: Klucel (hydroxypropylcellulose) (HPC) 97 % of control | dose: 200.0 mg/kg/injection, schedule: Q01DX001 (ip), vehicle: saline 112 % of control

c1ccc2c(SCCCSc3c4ccccc4nc4ccccc34)c3ccccc3nc2c1
inactive: [5] 97 % of control | [6] 91 % of control | [7] 95 % of control

O=C(O)C(S)c1ccc2ccccc2c1 (stereo unspecified)
inactive: [8] 90 % of control | [9] 100 % of control

CCCCN(CCCC)/N=N\N(CCCC)CCCC
inactive: dose: 12.5 mg/kg/injection, schedule: Q01DX005 (ip), vehicle: saline with Tween-80 104 % of control and 93 % of control | dose: 25.0 mg/kg/injection, schedule: Q01DX005 (ip), vehicle: saline with Tween-80 104 % of control and 90 % of control | [1] 107 % of control and 93 % of control and 94 % of control | [2] 98 % of control and 100 % of control and 97 % of control | [3] 105 % of control

O=C(CCCCCCCCc1ccc(O)c(O)c1)c1c(O)cccc1O
inactive: dose: 3.0 mg/kg/injection, schedule: Q01DX009 (ip), vehicle: Klucel (hydroxypropylcellulose) (HPC) 101 % of control | dose: 12.0 mg/kg/injection, schedule: Q01DX009 (ip), vehicle: Klucel (hydroxypropylcellulose) (HPC) 108 % of control | dose: 24.0 mg/kg/injection, schedule: Q01DX009 (ip), vehicle: Klucel (hydroxypropylcellulose) (HPC) 101 % of control

CC1=C(Cl)CC(/C(C)=C/Cl)OC1(O)CBr (stereo unspecified)
inactive: dose: 0.1 mg/kg/injection, schedule: Q01DX009 (ip), vehicle: Klucel (hydroxypropylcellulose) (HPC) 100 % of control | dose: 0.2 mg/kg/injection, schedule: Q01DX009 (ip), vehicle: Klucel (hydroxypropylcellulose) (HPC) 100 % of control | dose: 0.38 mg/kg/injection, schedule: Q01DX009 (ip), vehicle: Klucel (hydroxypropylcellulose) (HPC) 95 % of control | dose: 0.4 mg/kg/injection, schedule: Q01DX009 (ip), vehicle: Klucel (hydroxypropylcellulose) (HPC) 97 % of control

CCCCOC(=O)Nc1ccc(C)c(NC(=O)OCCCC)c1
inactive: dose: 50.0 mg/kg/injection, schedule: Q01DX009 (ip), vehicle: saline 100 % of control | dose: 100.0 mg/kg/injection, schedule: Q01DX009 (ip), vehicle: saline 102 % of control | dose: 200.0 mg/kg/injection, schedule: Q01DX009 (ip), vehicle: saline 100 % of control

O=C(O)c1ccc(N=NNc2ccc(C(=O)O)cc2)cc1
inactive: dose: 50.0 mg/kg/injection, schedule: Q01DX009 (ip), vehicle: Klucel (hydroxypropylcellulose) (HPC) 96 % of control | [8] 99 % of control | [9] 95 % of control | dose: 400.0 mg/kg/injection, schedule: Q01DX009 (ip), vehicle: Klucel (hydroxypropylcellulose) (HPC) 96 % of control

CCOC(=O)C1(C#N)C(c2ccccc2)C(OC)(OC)C1(OC)OC (stereo unspecified)
inactive: [5] 100 % of control | [6] 102 % of control | [7] 99 % of control

COc1cc(Br)cc(C(=O)O)c1OC
inactive: dose: 25.0 mg/kg/injection, schedule: Q01DX009 (ip), vehicle: other 101 % of control | dose: 50.0 mg/kg/injection, schedule: Q01DX009 (ip), vehicle: other 106 % of control | [4] 93 % of control | dose: 100.0 mg/kg/injection, schedule: Q01DX009 (ip), vehicle: other 102 % of control | dose: 100.0 mg/kg/injection, schedule: Q01DX009 (ip), vehicle: saline with Tween-80 93 % of control | dose: 200.0 mg/kg/injection, schedule: Q01DX009 (ip), vehicle: saline with Tween-80 100 % of control | dose: 400.0 mg/kg/injection, schedule: Q01DX009 (ip), vehicle: saline with Tween-80 102 % of control
